# Laboratory results reported in paper PMC11602988 (The Journal of Biological Chemistry, 2024).
# Residue numbers refer to the chain shown, from its start. Where two headings read alike, the source gives them in different places.
# Tests used:
# OCT1 WT [1] = target: T1, OCT1 WT (Homo sapiens, UniProt O15245); experiment: Uptake screening (transport ratio over empty vector), HEK293 cells overexpressing OCT1 WT; type: cell-based; design: expressed in transfected cells;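 further: intracellular substrate levels quantified by HPLC–tandem mass spectrometry after uptake in HBSS+ buffer at 37 °C, stable Flp-In HEK293 lines, fold change versus empty vector–transfected cells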
# T1 sequence (O15245 1-554): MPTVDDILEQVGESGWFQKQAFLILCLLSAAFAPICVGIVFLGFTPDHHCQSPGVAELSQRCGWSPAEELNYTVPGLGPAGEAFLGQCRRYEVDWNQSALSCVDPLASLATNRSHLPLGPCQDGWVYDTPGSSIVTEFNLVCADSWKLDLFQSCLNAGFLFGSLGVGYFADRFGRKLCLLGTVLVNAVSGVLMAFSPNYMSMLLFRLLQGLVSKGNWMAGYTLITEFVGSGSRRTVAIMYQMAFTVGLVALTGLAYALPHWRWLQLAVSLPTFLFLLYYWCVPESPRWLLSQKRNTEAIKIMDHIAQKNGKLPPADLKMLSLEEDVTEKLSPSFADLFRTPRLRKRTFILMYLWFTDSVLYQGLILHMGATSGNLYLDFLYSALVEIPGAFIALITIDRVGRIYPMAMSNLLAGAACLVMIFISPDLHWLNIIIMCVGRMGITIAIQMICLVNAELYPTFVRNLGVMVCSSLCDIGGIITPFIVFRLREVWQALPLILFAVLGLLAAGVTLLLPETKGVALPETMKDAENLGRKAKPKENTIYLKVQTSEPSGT
# OCT1 Phe244Ala variant [2] = target: T2, OCT1 Phe244Ala variant (Homo sapiens, UniProt O15245, F244A); experiment: Concentration-dependent uptake kinetics, HEK293 cells overexpressing OCT1 Phe244Ala; conditions: for Clint: OCT1 Phe244Ala, ratio of vmax over Km; for Km, Phe244Ala compared to WT / Maximum transport capacity (vmax), Phe244Ala compared to WT: uptake kinetics, in words;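 on all read-outs here: cells exposed to rising substrate concentrations in buffer, intracellular drug measured by HPLC-tandem mass spectrometry, quantified against a standard curve, uptake referenced to empty vector-transfected HEK293 controls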
# T2 sequence (O15245 1-554 F244A): T1 sequence (O15245 1-554) with F244A
# OCT1 WT [3] = target: T1, OCT1 WT; experiment: Concentration-dependent uptake kinetics, HEK293 cells overexpressing OCT1 WT; conditions: for Clint: OCT1 WT, ratio of vmax over Km
# OCT1 Phe244Ala variant [4] = target: T2, OCT1 Phe244Ala variant; experiment: Uptake screening (transport ratio over empty vector), HEK293 cells overexpressing OCT1 Phe244Ala variant; type: cell-based; design: expressed in transfected cells;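 further: stably transfected HEK293 cells, intracellular substrate quantified by HPLC-tandem mass spectrometry in cell lysates, uptake in HBSS+ buffer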
# [5] = uptake ratio over empty vector, HEK293 cells overexpressing OCT1 WT
# [6] = Phe244Ala uptake relative to WT
# [7] = uptake ratio over empty vector, HEK293 cells overexpressing OCT1 Phe244Ala
# [8] = Phe244Ala uptake relative to OCT1 WT
Compound,Mean_transport_ratio_WT (OCT1 WT [1]; [5]),Mean_transport_ratio_Phe244Ala (OCT1 Phe244Ala variant [4]; [7]),relative_Phe244Ala_uptake_in% (OCT1 Phe244Ala variant [4]; [8]) [%],also measured
CC(C)(C)NCC(O)COc1cccc2c1CCC(=O)N2 (stereo not drawn) [Carteolol],3.378,8.502,,"Clint (OCT1 Phe244Ala variant [2]): 7.82 ± 8.13 ml × g Protein^−1 × min^−1; Clint (OCT1 WT [3]): 1.01 ± 1.41 ml × g Protein^−1 × min^−1; Fold increased uptake rate by Phe244Ala compared to WT (OCT1 Phe244Ala variant [4]; 2.5 μM substrate, 2 min): 3.2 fold; relative_Phe244Ala_uptake_in% (OCT1 Phe244Ala variant [4]; [6]): 315.540%"
CC(CCc1ccc(O)cc1)NCCc1ccc(O)c(O)c1 (stereo not drawn) [Dobutamine],6.852,15.606,,"Clint (OCT1 Phe244Ala variant [2]): 7.88 ± 6.38 ml × g Protein^−1 × min^−1; Km, Phe244Ala compared to WT (OCT1 Phe244Ala variant [2]): lower Km values; Clint (OCT1 WT [3]): 3.03 ± 6.16 ml × g Protein^−1 × min^−1; relative_Phe244Ala_uptake_in% (OCT1 Phe244Ala variant [4]; [6]): 249.567%"
NC(N)=Nc1nc(CSCCC(N)=NS(N)(=O)=O)cs1 [Famotidine],,,,"Clint (OCT1 Phe244Ala variant [2]): 12.1 ± 19.8 ml × g Protein^−1 × min^−1; Km, Phe244Ala compared to WT (OCT1 Phe244Ala variant [2]): higher Km values; Maximum transport capacity (vmax), Phe244Ala compared to WT (OCT1 Phe244Ala variant [2]): more similar maximum transport capacities; Clint (OCT1 WT [3]): 45.8 ± 45.7 ml × g Protein^−1 × min^−1"
"CC(=O)OC(C)C[N+](C)(C)C (stereo not drawn) [Methacholine, Acetyl-beta-methylcholine]",,,,"Clint (OCT1 Phe244Ala variant [2]): 3.03 ± 8.29 ml × g Protein^−1 × min^−1; Km, Phe244Ala compared to WT (OCT1 Phe244Ala variant [2]): higher Km values; Maximum transport capacity (vmax), Phe244Ala compared to WT (OCT1 Phe244Ala variant [2]): more similar maximum transport capacities; Clint (OCT1 WT [3]): 14.1 ± 15.2 ml × g Protein^−1 × min^−1; Transport activity of Phe244Ala in % of WT activity (OCT1 Phe244Ala variant [4]; 2.5 μM substrate, 2 min, Phe244Ala uptake relative to WT): ~10%"
CC(=O)Nc1ccc(OCC(O)CNC(C)C)cc1 (stereo not drawn) [Practolol],2.092,1.913,83.607,
[H]/N=C(\N/C(=N/[H])Nc1ccc(Cl)cc1)NC(C)C [Proguanil],9.904,10.221,103.560,
"CC(C)[N+](C)(CCOC(=O)C1c2ccccc2Oc2ccccc21)C(C)C [Propanthelin, Propantheline]",,,,Clint (OCT1 Phe244Ala variant [2]): 205 ± 124 ml × g Protein^−1 × min^−1; Clint (OCT1 WT [3]): 224 ± 251 ml × g Protein^−1 × min^−1
CC(C)[N+](C)(CCOC(=O)C1c2ccccc2Oc2ccccc21)C(C)C [Propanthelinbromid],8.263,14.937,191.888,
CN[C@@H]1CCc2[nH]c3ccc(C(N)=O)cc3c2C1 [R-Frovatriptan],16.171,10.8,64.599,
CC(CCc1ccc(O)cc1)NCC(O)c1ccc(O)cc1 (stereo not drawn) [Ractopamine],6.92,7.041,102.038,
CNC(=C[N+](=O)[O-])NCCSCc1ccc(CN(C)C)o1 [Ranitidin],17.125,11.729,66.532,
CC(NCCc1ccc(O)cc1)C(O)c1ccc(O)cc1 (stereo not drawn) [Ritodrine],8.916,12.33,143.135,
CN(C)CCc1c[nH]c2ccc(Cn3cncn3)cc12 [Rizatriptan],7.577,2.714,26.058,
CNCc1ccc(-c2[nH]c3cc(F)cc4c3c2CCNC4=O)cc1 [Rucaparib],2.018,2.644,161.437,
CC(C)NC[C@H](O)COc1ccc(O)cc1 [S-Prenalterol],3.969,4.341,112.541,
CC(C)(C)NCC(O)c1ccc(O)c(CO)c1 (stereo not drawn) [Salbutamol],8.785,12.079,142.307,
COc1cc2c(cc1OC)[C@H](C)NCC2 [Salsolidine],1.647,1.211,32.677,
CCN(CC)CCNC(=O)c1ccc(NS(C)(=O)=O)cc1 [Sematilid],3.577,2.352,52.483,

Compound,Mean_transport_ratio_WT (OCT1 WT [1]; [5]),Mean_transport_ratio_Phe244Ala (OCT1 Phe244Ala variant [4]; [7]),relative_Phe244Ala_uptake_in% (OCT1 Phe244Ala variant [4]; [8]) [%],also measured
CC(C)NCC(O)c1ccc(NS(C)(=O)=O)cc1 (stereo not drawn) [Sotalol],5.197,2.831,43.617,
CCN1CCCC1CNC(=O)c1cc(S(N)(=O)=O)ccc1OC (stereo not drawn) [Sulpiride],,,,vmax (OCT1 Phe244Ala variant [2]): 418 ± 65 pmol × mg protein^−1 × min^−1; Clint (OCT1 Phe244Ala variant [2]): 4.01 ± 3.27 ml × g Protein^−1 × min^−1; vmax (OCT1 WT [3]): 237 ± 49.7 pmol × mg protein^−1 × min^−1; Clint (OCT1 WT [3]): 2.65 ± 3.09 ml × g Protein^−1 × min^−1
CNS(=O)(=O)Cc1ccc2[nH]cc(CCN(C)C)c2c1 [Sumatriptan],32.304,37.118,115.380,
CNCC(O)c1ccc(O)cc1 (stereo not drawn) [Synephrine],8.37,4.516,47.706,
Cc1ncc(C[n+]2csc(CCO)c2C)c(N)n1 [Thiamine],42.169,9.954,21.749,"Clint (OCT1 Phe244Ala variant [2]): 2.70 ± 5.44 ml × g Protein^−1 × min^−1; Maximum transport capacity (vmax), Phe244Ala compared to WT (OCT1 Phe244Ala variant [2]): reduced transport capacity; Clint (OCT1 WT [3]): 7.51 ± 8.28 ml × g Protein^−1 × min^−1"
C[N+]1(C)[C@@H]2CC(OC(=O)C(O)(c3cccs3)c3cccs3)C[C@H]1[C@@H]1O[C@@H]12 (stereo partly drawn) [Thiotropium],,,,Mean_transport_ratio_WT (OCT1 WT [1]): 34.841; Mean_transport_ratio_Phe244Ala (OCT1 Phe244Ala variant [4]): 35.339; relative_Phe244Ala_uptake_in% (OCT1 Phe244Ala variant [4]): 101.472%
CN1[C@@H]2CC[C@H]1C[C@@H](OC(=O)c1c[nH]c3ccccc13)C2 [Tropisetron],2.206,1.568,47.074,
O=C(O[C@H]1C[C@H]2CC[C@@H](C1)[N+]21CCCC1)C(O)(c1ccccc1)c1ccccc1 [Trospium],27.542,29.384,106.940,
NCCc1c[nH]c2ccccc12 [Tryptamin],2.619,1.149,9.229,
OC(c1ccccc1)(c1ccccc1)C12CC[N+](CCOCc3ccccc3)(CC1)CC2 [Umeclidinium],6.027,7.391,127.145,
C=CCN1CCCC1CNC(=O)c1cc(S(N)(=O)=O)cc(OC)c1OC (stereo not drawn) [Veralipride],1.907,5.345,478.904,
Cc1cc(C(C)(C)C)cc(C)c1CC1=NCCN1 [Xylometazoline],2.256,4.046,242.447,
COCCn1c2c([n+](Cc3cnccn3)c1C)C(=O)c1ccccc1C2=O [YM155],18.329,16.385,88.784,
CN(C)CCc1c[nH]c2ccc(C[C@H]3COC(=O)N3)cc12 [Zolmitriptan],,,,"Clint (OCT1 Phe244Ala variant [2]): 13.3 ± 17.5 ml × g Protein^−1 × min^−1; Maximum transport capacity (vmax), Phe244Ala compared to WT (OCT1 Phe244Ala variant [2]): reduced transport capacity; Clint (OCT1 WT [3]): 21.6 ± 26.4 ml × g Protein^−1 × min^−1"
NCCc1cccc(O)c1 [m-Tyramine],6.001,1.687,13.730,
NCCc1ccc(O)cc1 [p-Tyramine],4.809,1.435,11.429,
(-)-Sparteine,,,,Mean_transport_ratio_WT (OCT1 WT [1]): 5.032; Mean_transport_ratio_Phe244Ala (OCT1 Phe244Ala variant [4]): 4.411; relative_Phe244Ala_uptake_in% (OCT1 Phe244Ala variant [4]): 84.604%
